The values below come from patent publication US8883782B2, “Spiro-tetracyclic ring compounds as beta-secretase modulators and methods of use” (Amgen Inc., priority 2010, dated 2014).

Like-named read-outs stand apart in the source and are kept apart here.

In assay [1] the target is Beta Secretase enzyme (BACE) (Homo sapiens, UniProt P56817). Kind of assay: In vitro enzymatic BACE FRET (fluorescence resonance energy transfer) assay. The class given is biochemical. The essentials: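 Acetate buffer (0.05 M, pH 4.2), 10% DMSO final, 100 uM nonionic detergent genapol. Substrate addition (50 nM FRET peptide) initiates; one-hour incubation; Tris raises pH to neutrality before fluorescence measurement.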

Assay [2] concerns Aβ40 in conditioned medium of cells stably expressing Amyloid Precursor Protein (APP). Kind of assay: In vitro BACE cell-based assay (Aβ40 in conditioned medium, sandwich ELISA). The essentials: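 Conditioned medium from stably APP-expressing cells treated with compound dose series is assayed for Aβ40 by sandwich ELISA with time-resolved fluorescence detection. IC50 is calculated from percent inhibition of Aβ40 against compound concentration.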
(In general: ELISA stands for enzyme-linked immunosorbent assay.)

The mark [3] stands for this setting: average IC50, enzyme assay, read-out: BACE 1 FRET assay.
Where [4] appears, read: Homo sapiens, HEK293, average IC50, HEK cells, read-out: HEK cell assay.
Setting [5] is: average IC50, HEK cells, read-out: HEK cell assay.

Beta Secretase enzyme (BACE), sequence (P56817 46-501, species assumed): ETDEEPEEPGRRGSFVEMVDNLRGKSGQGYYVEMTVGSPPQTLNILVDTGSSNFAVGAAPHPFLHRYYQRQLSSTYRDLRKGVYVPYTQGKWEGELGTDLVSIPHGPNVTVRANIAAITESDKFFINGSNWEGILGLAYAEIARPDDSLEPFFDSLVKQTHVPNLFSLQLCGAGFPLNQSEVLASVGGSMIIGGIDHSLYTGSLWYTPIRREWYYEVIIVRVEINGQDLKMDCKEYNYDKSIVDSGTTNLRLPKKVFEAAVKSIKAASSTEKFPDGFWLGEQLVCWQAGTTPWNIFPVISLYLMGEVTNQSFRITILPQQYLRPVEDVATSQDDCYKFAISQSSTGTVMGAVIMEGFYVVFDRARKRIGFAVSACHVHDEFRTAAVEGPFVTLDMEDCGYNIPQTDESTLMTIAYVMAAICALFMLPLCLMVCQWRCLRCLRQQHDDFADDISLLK

As for `CC1(C)C[C@@H](c2cnc3c(c2)[C@]2(COC(N)=N2)c2cc(-c4cccc(C#N)c4)ccc2O3)CCO1` [Example 472, 3-((5S)-2′-amino-3-((4S)-2,2-dimethyltetrahydro-2H-pyran-4-yl)spiro[chromeno[2,3-b]pyridine-5,4′-[1,3]oxazol]-7-yl)benzonitrile], the IC50 in assay [1] (setting [3]) stood at 0.0023 µM; in assay [2] (setting [4]) it was 0.0044 µM.

With `CC1(C)C[C@H](c2cnc3c(c2)[C@]2(COC(N)=N2)c2cc(-c4cccc(Cl)c4)ccc2O3)CCO1` [Example 473, (5S)-7-(3-chlorophenyl)-3-((4R)-2,2-dimethyltetrahydro-2H-pyran-4-yl)spiro[chromeno[2,3-b]pyridine-5,4′-[1,3]oxazol]-2′-amine], the IC50 in assay [1] (setting [3]) stood at 0.0021 µM; in assay [2] (setting [4]), 0.0155 µM.

On to `CC1(C)C[C@@H](c2cnc3c(c2)[C@]2(COC(N)=N2)c2cc(-c4cccc(Cl)c4)ccc2O3)CCO1` [Example 474, (5S)-7-(3-chlorophenyl)-3-((4S)-2,2-dimethyltetrahydro-2H-pyran-4-yl)spiro[chromeno[2,3-b]pyridine-5,4′-[1,3]oxazol]-2′-amine], for which the IC50 in assay [1] (setting [3]) came out at 0.0009 µM; in assay [2] (setting [5]) it was 0.0094 µM.

For the molecule `CC1(C)C[C@H](c2cnc3c(c2)[C@]2(COC(N)=N2)c2cc(-c4cncc(Cl)c4)ccc2O3)CCO1` [Example 475, (5S)-7-(5-chloro-3-pyridinyl)-3-((4R)-2,2-dimethyltetrahydro-2H-pyran-4-yl)spiro[chromeno[2,3-b]pyridine-5,4′-[1,3]oxazol]-2′-amine], the values for the IC50 in assay [1] (setting [3]) and in assay [2] (setting [4]) were 0.0022 µM and 0.0073 µM, respectively.

Regarding `CC1(C)C[C@@H](c2cnc3c(c2)[C@]2(COC(N)=N2)c2cc(-c4cncc(Cl)c4)ccc2O3)CCO1` [Example 476, (5S)-7-(5-chloro-3-pyridinyl)-3-((4S)-2,2-dimethyltetrahydro-2H-pyran-4-yl)spiro[chromeno[2,3-b]pyridine-5,4′-[1,3]oxazol]-2′-amine], the IC50 in assay [1] (setting [3]) was 0.0013 µM; in assay [2] (setting [5]) it was 0.0049 µM.

Take `NC1=N[C@@]2(CO1)c1cc(-c3cccnc3N3CCC(F)(F)CC3)ccc1Oc1ncc(N3CCC(F)(F)CC3)cc12` [Example 477, (5S)-3-(4,4-difluoro-1-piperidinyl)-7-(2-(4,4-difluoro-1-piperidinyl)-3-pyridinyl)spiro[chromeno[2,3-b]pyridine-5,4′-[1,3]oxazol]-2′-amine]: the IC50 in assay [1] (setting [3]) was 0.33 µM; in assay [2] (setting [4]), 1.2 µM.

In the case of `NC1=N[C@@]2(CO1)c1cc(-c3cccnc3F)ccc1Oc1ncc(N3CCC(F)(F)CC3)cc12` [Example 478, (5S)-3-(4,4-difluoro-1-piperidinyl)-7-(2-fluoro-3-pyridinyl)spiro[chromeno[2,3-b]pyridine-5,4′-[1,3]oxazol]-2′-amine], the figures for the IC50 in assay [1] (setting [3]) and in assay [2] (setting [4]) were 0.0021 µM and 0.0143 µM, respectively.

Consider `NC1=N[C@@]2(CO1)c1cc(-c3cccnc3F)ccc1Oc1ncc(N3CCC(F)(F)C3)cc12` [Example 479, (5S)-3-(3,3-difluoro-1-pyrrolidinyl)-7-(2-fluoro-3-pyridinyl)spiro[chromeno[2,3-b]pyridine-5,4′-[1,3]oxazol]-2′-amine], for which the IC50 in assay [1] (setting [3]) stood at 0.0011 µM; in assay [2] (setting [4]), 0.0044 µM.

Take `CC1(C)CCN(c2cnc3c(c2)[C@]2(COC(N)=N2)c2cc(-c4cccnc4F)ccc2O3)CC1` [Example 480, (5S)-3-(4,4-dimethyl-1-piperidinyl)-7-(2-fluoro-3-pyridinyl)spiro[chromeno[2,3-b]pyridine-5,4′-[1,3]oxazol]-2′-amine]: the IC50 amounted to 0.0025 µM in assay [1] (setting [3]) and 0.0094 µM in assay [2] (setting [4]).

As to `COc1ccc(F)c(-c2ccc3c(c2)[C@@]2(COC(N)=N2)c2cc(N4CCOC(C)(C)C4)cnc2O3)c1` [Example 481, (5S)-3-(2,2-dimethyl-4-morpholinyl)-7-(2-fluoro-5-methoxyphenyl)spiro[chromeno[2,3-b]pyridine-5,4′-[1,3]oxazol]-2′-amine], the figures for the IC50 in assay [1] (setting [3]) and in assay [2] (setting [4]) were 0.0027 µM and 0.0192 µM, respectively.

For `Cc1ccnc(F)c1-c1ccc2c(c1)[C@@]1(COC(N)=N1)c1cc(N3CCOC(C)(C)C3)cnc1O2` [Example 482, (5S)-3-(2,2-dimethyl-4-morpholinyl)-7-(2-fluoro-4-methyl-3-pyridinyl)spiro[chromeno[2,3-b]pyridine-5,4′-[1,3]oxazol]-2′-amine], the IC50 stood at 0.0034 µM in assay [1] (setting [3]) and 0.0144 µM in assay [2] (setting [4]).

With `CC1(C)CCCN(c2cnc3c(c2)[C@]2(COC(N)=N2)c2cc(-c4cccnc4F)ccc2O3)C1` [Example 483, (5S)-3-(3,3-dimethyl-1-piperidinyl)-7-(2-fluoro-3-pyridinyl)spiro[chromeno[2,3-b]pyridine-5,4′-[1,3]oxazol]-2′-amine], the IC50 stood at 0.0034 µM in assay [1] (setting [3]) and 0.0223 µM in assay [2] (setting [4]).

With `NC1=N[C@]2(CO1)c1cc(Br)ccc1Oc1nc(F)ccc12` [Example 484, (5R)-7-bromo-2-fluorospiro[chromeno[2,3-b]pyridine-5,4′-[1,3]oxazol]-2′-amine], the IC50 in assay [1] (setting [3]) is 24.6 µM; in assay [2] (setting [4]) it was 10 µM.

As for `NC1=N[C@]2(CO1)c1cc(-c3cccnc3F)ccc1Oc1nc(F)ccc12` [Example 485, (5R)-2-fluoro-7-(2-fluoro-3-pyridinyl)spiro[chromeno[2,3-b]pyridine-5,4′-[1,3]oxazol]-2′-amine], the IC50 in assay [1] (setting [3]) came out at 0.175 µM; in assay [2] (setting [4]), 0.852 µM.

For `NC1=N[C@]2(CO1)c1cc(-c3cccnc3)ccc1Oc1c2cc(-c2cccnc2)nc1F` [Example 486, (5R)-1-fluoro-3,7-di-3-pyridinylspiro[chromeno[2,3-c]pyridine-5,4′-[1,3]oxazol]-2′-amine], the figures for the IC50 in assay [1] (setting [3]) and in assay [2] (setting [4]) were 0.301 µM and 0.326 µM, respectively.

In the case of `NC1=N[C@@]2(CO1)c1cc(Br)ccc1Oc1c2cc(Cl)nc1F` [Example 487, (5S)-7-bromo-3-chloro-1-fluorospiro[chromeno[2,3-c]pyridine-5,4′-[1,3]oxazol]-2′-amine], the IC50 turned out to be 3.68 µM in assay [1] (setting [3]) and 0.74 µM in assay [2] (setting [4]).

On to `NC1=N[C@@]2(CO1)c1cc(-c3cccnc3F)ccc1Oc1c2cc(Cl)nc1F` [Example 488, (5S)-3-chloro-1-fluoro-7-(2-fluoro-3-pyridinyl)spiro[chromeno[2,3-c]pyridine-5,4′-[1,3]oxazol]-2′-amine], for which the IC50 turned out to be 0.0066 µM in assay [1] (setting [3]) and 0.358 µM in assay [2] (setting [4]).

Consider `NC1=N[C@]2(CO1)c1cc(Br)ccc1Oc1c(F)cc(Cl)nc12` [Example 489, (10R)-8-bromo-2-chloro-4-fluorospiro[chromeno[3,2-b]pyridine-10,4′-[1,3]oxazol]-2′-amine], for which the IC50 came to 8.12 µM in assay [1] (setting [3]) and 10 µM in assay [2] (setting [4]).

As to `COc1nc(-c2cccnc2)cc2c1Oc1ccc(-c3cccnc3)cc1[C@@]21COC(N)=N1` [Example 490, (5S)-1-methoxy-3,7-di-3-pyridinylspiro[chromeno[2,3-c]pyridine-5,4′-[1,3]oxazol]-2′-amine], the IC50 in assay [1] (setting [3]) worked out at 0.007 µM; in assay [2] (setting [4]) it was 0.0226 µM.

As for `NC1=N[C@@]2(CO1)c1cc(-c3cccnc3)ccc1Oc1c2cc(-c2cccnc2)nc1F` [Example 494, (5S)-1-fluoro-3,7-di-3-pyridinylspiro[chromeno[2,3-c]pyridine-5,4′-[1,3]oxazol]-2′-amine], the IC50 in assay [1] (setting [3]) came out at 0.0005 µM; in assay [2] (setting [4]) it was 0.0053 µM.

As to `CC(C)(C)/C=C/c1ccc2c(c1)[C@]1(COC(N)=N1)c1cc(-c3cncnc3)c(F)cc1O2` [Example 496, (4R)-7′-((1E)-3,3-dimethyl-1-buten-1-yl)-3′-fluoro-2′-(5-pyrimidinyl)spiro[1,3-oxazole-4,9′-xanthen]-2-amine], the IC50 in assay [1] (BACE 1 FRET assay (uM)) turned out to be 0.0014 µM; in assay [2] (Homo sapiens, HEK293, read-out: HEK cell assay (uM), average IC50, HEK cells) it was 0.0311 µM.

Turning to `CC(C)(C)C#Cc1ccc2c(c1)[C@]1(COC(N)=N1)c1cc(-c3cncnc3)c(F)cc1O2` [Example 497, (4R)-7′-(3,3-dimethyl-1-butyn-1-yl)-3′-fluoro-2′-(5-pyrimidinyl)spiro[1,3-oxazole-4,9′-xanthen]-2-amine], the IC50 turned out to be 0.0025 µM in assay [1] (setting [3]) and 0.0372 µM in assay [2] (setting [4]).

In the case of `CC1(C#Cc2ccc3c(c2)[C@]2(COC(N)=N2)c2cc(-c4cncnc4)c(F)cc2O3)COC1` [Example 498, (4R)-3′-fluoro-7′-((3-methyl-3-oxetanyl)ethynyl)-2′-(5-pyrimidinyl)spiro[1,3-oxazole-4,9′-xanthen]-2-amine], the figures for the IC50 in assay [1] (setting [3]) and in assay [2] (setting [4]) were 0.0038 µM and 0.0191 µM, respectively.

Regarding `COc1ccc(Cl)c(-c2ccc3c(c2)[C@@]2(COC(N)=N2)c2cc(C4=CCOCC4)cnc2O3)c1` [Example 499, (5S)-7-(2-chloro-5-methoxyphenyl)-3-(3,6-dihydro-2H-pyran-4-yl)spiro[chromeno[2,3-b]pyridine-5,4′-[1,3]oxazol]-2′-amine], the IC50 in assay [1] (setting [3]) came out at 0.0022 µM; in assay [2] (setting [4]), 0.0227 µM.

`CNC(=O)c1ccc(F)c(-c2ccc3c(c2)[C@@]2(COC(N)=N2)c2cc(C4=CCOCC4)cnc2O3)c1` [Example 500, 3-((5S)-2′-amino-3-(3,6-dihydro-2H-pyran-4-yl)spiro[chromeno[2,3-b]pyridine-5,4′-[1,3]oxazol]-7-yl)-4-fluoro-N-methylbenzamide]: the IC50 in assay [1] (setting [3]) came to 0.0117 µM; in assay [2] (setting [4]) it was 0.0368 µM.

Take `NC1=N[C@@]2(CO1)c1cc(-c3cc(Cl)ccc3Cl)ccc1Oc1ncc(C3=CCOCC3)cc12` [Example 501, (5S)-7-(2,5-dichlorophenyl)-3-(3,6-dihydro-2H-pyran-4-yl)spiro[chromeno[2,3-b]pyridine-5,4′-[1,3]oxazol]-2′-amine]: the IC50 in assay [1] (setting [3]) turned out to be 0.0022 µM; in assay [2] (setting [4]) it was 0.027 µM.

As for `COc1ccc(OC)c(-c2ccc3c(c2)[C@@]2(COC(N)=N2)c2cc(C4=CCOCC4)cnc2O3)c1` [Example 502, (5S)-3-(3,6-dihydro-2H-pyran-4-yl)-7-(2,5-dimethoxyphenyl)spiro[chromeno[2,3-b]pyridine-5,4′-[1,3]oxazol]-2′-amine], the figures for the IC50 in assay [1] (setting [3]) and in assay [2] (setting [4]) were 0.0025 µM and 0.0127 µM, respectively.
